The assay deals with soya variety NIDERA AX 4910. The experiment in a line: Field experiments: yield of glyphosate-resistant soya after foliar treatment. It counts as in vivo. As to the method:
The results shown hereinbelow were obtained in experiments in the, open which were carried out during the […] season in the Argentinian northern pampas. The plots used were arranged randomly relative to one another. Each treatment variant was replicated-four times. The crop plant used was the soya variety NIDERA AX 4910, which is resistant to numerous fungal diseases and to the herbicide glyphosate.
In all 5 experiments, two foliar treatments with glyphosate were carried out 30 or 60 days after planting the soya seeds, using equipment conventionally used under practice conditions. In the experiments 2 and 3, pyraclostrobin was added at “30 days after planting”, while pyraclostrobin was added at “60 days after planting” in the experiments 4 and 5.

Here are results for two compounds from patent US7838464B2, “Method for yield improvement in glyphosate-resistent legumes” (priority 2002, dated 2010).

With `O=C(O)CNCP(=O)(O)O` [glyphosate, N-(phosphonomethyl)glycine], the Yield (experiment 1: glyphosate 360 g a.s./ha at 30 and at 60 days after planting, no pyraclostrobin, open field, 4 replicates) was 100%.

pyraclostrobin: under “addition of pyraclostrobin 50 or 100 g a.s./ha to glyphosate at early (30 days) and late (60 days) treatment times”, the “yield in comparison with the conventional use of glyphosate alone” value is “markedly increased the yield”.
